One assay has as its target galectin-1 (Homo sapiens, UniProt P09382). Briefly: Fluorescence anisotropy assay, inhibition of probe binding to galectin-1. The note with it: for Kd: about 1 μM galectin, 0.1 or 0.02 μM probe, 4 mM β-mercaptoethanol, NI = no inhibition at highest concentration tested, read-out: Calculated Kd, Gal-1. As for the experimental part: (§1) FA was used to analyze interactions of probes and ligands with galectins in solution, as described before ([41][–][44]). A PheraStarFS plate reader, with software PHERAstar Mars version 2.10 R3 (BMG, Offenburg, Germany), was used, and FA of fluorescein-tagged saccharide probes was measured with excitation at 485 nm and emission at 520 nm.
(§2) The anisotropy (A) is given in units of mA, where the theoretical maximum is 400, and the value for free fluorescein typically 23. All conditions were measured in at least two duplicate wells.
(§3) In this study, the effect of inhibitors of the saccharide probe/galectin interaction was tested in two ways. In the first, a fixed low concentration of fluorescein-tagged probe (0.1 μM) and galectin were mixed with a range of concentrations of inhibitor. An optimal probe was chosen for each galectin to permit use of as low as possible concentration of galectin, while still achieving a sufficient rise in anisotropy for a reliable measuring range ([42][–][44]). […] With structurally defined inhibitors (pure synthetic galacto-oligosaccharides, small galactomannans, and reference ligands) the molecular mass, molar concentrations, and number of binding sites (in this case one binding site per ligand) were known and their dissociation constants (Kd) could therefore be directly calculated, using the data from the FA assay as described in Sörme et al. ([41]). […] Even if the molar concentration of the inhibitor is not known, the anisotropy value at a given condition permits calculation of the molar concentration of free galectin, as described below, and from this what fraction of the galectin is bound by a given mass per volume concentration of inhibitor. From this, the ratio of the molar concentration of the free inhibitor binding sites to their Kd value can be calculated, even if the FA assay cannot distinguish between the case when this is due to a few high affinity binding sites in the polysaccharide fraction or many of low affinity.

The next assay has as its target T1, galectin-2 (Homo sapiens, UniProt P05162).
T1 sequence (P05162 1-132): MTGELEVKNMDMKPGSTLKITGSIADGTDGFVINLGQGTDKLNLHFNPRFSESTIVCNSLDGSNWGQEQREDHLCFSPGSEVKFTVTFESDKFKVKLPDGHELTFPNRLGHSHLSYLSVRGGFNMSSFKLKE
Briefly: Fluorescence anisotropy assay, galectin-2. The note with it: about 1 μM galectin, 0.1 or 0.02 μM probe; NI = no inhibition at highest concentration tested; read-out: Calculated Kd, Gal-2. The assay is classed as binding. The protocol: as §1, §2
(§4) In this study, the effect of inhibitors of the saccharide probe/galectin interaction was tested in two ways. […] With structurally defined inhibitors (pure synthetic galacto-oligosaccharides, small galactomannans, and reference ligands) the molecular mass, molar concentrations, and number of binding sites (in this case one binding site per ligand) were known and their dissociation constants (Kd) could therefore be directly calculated, using the data from the FA assay as described in Sörme et al. ([41]). […] From this, the ratio of the molar concentration of the free inhibitor binding sites to their Kd value can be calculated, even if the FA assay cannot distinguish between the case when this is due to a few high affinity binding sites in the polysaccharide fraction or many of low affinity.

Assay [1] addresses T2, galectin-3 (Homo sapiens, UniProt P17931). The assay can be described thus: Fluorescence anisotropy assay, galectin-3. As to conditions: about 1 μM galectin, 0.1 or 0.02 μM probe; NI = no inhibition at highest concentration tested; read-out: Calculated Kd, Gal-3. It counts as binding. As for the experimental part:
as §1, §2, §3

A further assay concerns the target T3, Gal-4C (Homo sapiens, UniProt P56470).
T3 construct: Gal-4C
T3 sequence (P56470 194-323 limits assumed): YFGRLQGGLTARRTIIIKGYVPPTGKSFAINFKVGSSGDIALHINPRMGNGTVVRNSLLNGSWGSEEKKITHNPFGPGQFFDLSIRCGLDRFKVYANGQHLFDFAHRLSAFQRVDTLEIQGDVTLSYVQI
The assay can be described thus: Fluorescence anisotropy assay, galectin-4C. It counts as binding. As to conditions: about 1 μM galectin, 0.1 or 0.02 μM probe; NI = no inhibition at highest concentration tested; read-out: Calculated Kd, Gal-4C. The protocol: as §1, §2, §3

Another assay has as its target T4, galectin-8N (Homo sapiens, UniProt O00214).
T4 construct: the N-terminal CRD of galectin-8 (galectin-8N)
T4 sequence (O00214 19-152 limits assumed): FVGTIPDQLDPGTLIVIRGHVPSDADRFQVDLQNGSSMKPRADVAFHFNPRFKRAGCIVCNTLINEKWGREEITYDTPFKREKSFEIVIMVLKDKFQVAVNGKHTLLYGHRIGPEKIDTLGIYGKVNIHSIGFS
Briefly: Fluorescence anisotropy assay, galectin-8N. It counts as binding. As to conditions: about 1 μM galectin, 0.1 or 0.02 μM probe; read-out: Calculated Kd, Gal-8N. As for the experimental part:
as §1, §2, §4

A further assay concerns the target T5, Gal-9C (Homo sapiens, UniProt O00182).
T5 construct: Gal-9C
The assay can be described thus: Fluorescence anisotropy assay, galectin-9C. It counts as binding. As to conditions: about 1 μM galectin, 0.1 or 0.02 μM probe; read-out: Calculated Kd, Gal-9C. The protocol: as §1, §2, §3

For another assay, the target named is T6, galectin-9N (Homo sapiens, UniProt O00182).
T6 construct: the N-terminal CRD of galectin-9 (galectin-9N)
T6 sequence (O00182 17-148 limits assumed): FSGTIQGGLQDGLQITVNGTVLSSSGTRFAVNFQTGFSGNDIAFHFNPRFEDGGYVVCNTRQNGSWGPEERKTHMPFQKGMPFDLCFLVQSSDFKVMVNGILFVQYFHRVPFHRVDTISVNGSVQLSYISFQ
The assay can be described thus: Fluorescence anisotropy assay, galectin-9N. The assay is classed as binding. The note with it: about 1 μM galectin, 0.1 or 0.02 μM probe; NI = no inhibition at highest concentration tested; read-out: Calculated Kd, Gal-9N. The protocol: as §1, §2, §3

A further assay deals with T7, Gal-4N (Homo sapiens, UniProt P56470).
T7 construct: Gal-4N
T7 sequence (P56470 19-150 limits assumed): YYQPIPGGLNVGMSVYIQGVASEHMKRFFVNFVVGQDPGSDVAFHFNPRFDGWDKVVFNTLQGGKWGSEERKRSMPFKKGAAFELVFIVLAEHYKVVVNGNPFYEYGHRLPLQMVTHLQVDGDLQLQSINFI
Briefly: Fluorescence anisotropy assay, galectin-4N. The assay is classed as binding. As to conditions: about 1 μM galectin, 0.1 or 0.02 μM probe; NI = no inhibition at highest concentration tested; read-out: Calculated Kd, Gal-4N. As for the experimental part:
as §1, §2, §4

In a further assay the target is Gal-3 R186S (Homo sapiens, UniProt P17931, R186S). Briefly: Fluorescence anisotropy assay, galectin-3 R186S mutant. It counts as binding. The note with it: about 1 μM galectin, 0.1 or 0.02 μM probe; read-out: Calculated Kd, Gal-3 R186S. As for the experimental part:
as §1, §2, §4

The target of assay [2] is T2, galectin-3. The note with it: given as example of low affinity; no reference given; read-out: Kd for galectin-3 canonical carbohydrate-binding site; cited from earlier work.
In the next assay the target is T8, galectin-1 wild type (UniProt P09382 1-135).
T8 construct: galectin-1, wild type; also called Gal-1; galectin-1 WT; source: called purified galectins in the discussion
T8 sequence (P09382 whole entry): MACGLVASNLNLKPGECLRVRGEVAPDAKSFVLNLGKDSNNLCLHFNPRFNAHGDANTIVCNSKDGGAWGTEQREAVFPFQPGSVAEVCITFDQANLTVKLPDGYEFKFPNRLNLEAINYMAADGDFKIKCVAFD
Briefly: fluorescence polarisation; fluorescence anisotropy competition in solution; galectin-1 WT 0.5 uM, tdga saccharide probe 0.1 uM, increasing concentrations of ASF in the presence of the peptide Anginex, with or without beta-mercaptoethanol. The note with it: both partners purified.

Read-outs that look alike come from different tables or passages of the source.

T5 sequence (O00182 227-355 limits assumed): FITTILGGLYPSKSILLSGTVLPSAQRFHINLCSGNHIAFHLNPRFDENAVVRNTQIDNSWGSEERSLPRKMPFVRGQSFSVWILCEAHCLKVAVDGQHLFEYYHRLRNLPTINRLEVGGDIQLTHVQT
T2 sequence (P17931 whole entry): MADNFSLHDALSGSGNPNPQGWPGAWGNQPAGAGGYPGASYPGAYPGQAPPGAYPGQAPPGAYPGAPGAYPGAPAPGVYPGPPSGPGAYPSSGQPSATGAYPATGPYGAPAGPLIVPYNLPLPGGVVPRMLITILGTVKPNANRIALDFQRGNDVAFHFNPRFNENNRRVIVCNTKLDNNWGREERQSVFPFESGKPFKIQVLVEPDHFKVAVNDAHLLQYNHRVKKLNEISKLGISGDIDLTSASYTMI
galectin-1, sequence (P09382 whole entry, species assumed): as the sequence (P09382 whole entry) above
Gal-3 R186S, sequence (P17931 whole entry R186S): as the sequence (P17931 whole entry) above, with R186S counted along it

A word on the Kd: it is the free concentration of one partner at which half of the binding sites on the other are occupied at equilibrium, for simple one-to-one binding. With `OC[C@H]1O[C@H](OC[C@H]2O[C@@H](O[C@H]3[C@H](O)[C@H](O)[C@H](O[C@H]4[C@H](O)[C@H](O)[C@H](O[C@H]5[C@H](O)[C@H](O)C(O)O[C@@H]5CO)O[C@@H]4CO)O[C@@H]3CO[C@H]3O[C@H](CO)[C@H](O)[C@H](O)[C@H]3O)[C@@H](O)[C@@H](O)[C@@H]2O[C@@H]2O[C@H](CO)[C@@H](O)[C@H](O)[C@@H]2O)[C@H](O)[C@@H](O)[C@H]1O` (stereo partly drawn) [6^3,6^4-α-Galactosyl-mannopentaose, 6^3,6^4-α-D-galactosyl-mannopentaose], the equilibrium dissociation constant (Kd) at galectin-1 was 4300 µM; on galectin-2, 8300 µM; at galectin-3 [1] it was 1500 µM; on Gal-4C it was > 10000 µM; at galectin-8N, 2500 µM; at Gal-9C it was 2000 µM. The Kd at galectin-9N was 980 µM.

Regarding `OC[C@H]1O[C@H](OC[C@H]2OC(O)[C@@H](O)[C@@H](O)[C@@H]2O[C@@H]2O[C@H](CO)[C@@H](O[C@@H]3O[C@H](CO)[C@@H](O)[C@H](O)[C@@H]3O)[C@H](O)[C@@H]2O)[C@H](O)[C@@H](O)[C@H]1O` (stereo partly drawn) [6^1-α-Galactosyl-mannotriose, 6^1-α-D-galactosyl-mannotriose], the Kd at galectin-2 is > 10000 µM; at galectin-3 [1], 3600 µM; at Gal-4C, > 10000 µM; on Gal-4N it was > 10000 µM; on galectin-8N it was 7400 µM; on galectin-9N it was 2400 µM.

With `OC[C@H]1O[C@@H](O[C@@H]2[C@H](O)[C@@H](O)C(O)O[C@@H]2CO)[C@H](O)[C@@H](O)[C@H]1O` (stereo partly shown) [Galβ1–4Gal], the Kd at galectin-9N was 1200 µM.

As to `OC[C@H]1O[C@@H](OC[C@H]2O[C@@H](OC[C@H]3OC(O)[C@H](O)[C@@H](O)[C@H]3O)[C@H](O)[C@@H](O[C@@H]3O[C@H](CO)[C@H](O)[C@H](O)[C@H]3O)[C@H]2O)[C@H](O)[C@@H](O)[C@H]1O` (stereo partly shown) [Branched Galβ1–6(Galβ1–3)Galβ1–6Gal, Galβ1–6(Galβ1–3)Galβ1–6Gal], the equilibrium dissociation constant (Kd) on galectin-1 was 800 µM; on galectin-3 [1] it was 80 µM; on galectin-9N, 51 µM.

For the molecule `COC1OC(CO)C(O)C(O)C1O` (stereo not drawn) [Methyl β-Gal, reference compound], the results for the Kd on Gal-9C and at galectin-9N were 8600 µM and 4000 µM, respectively.

`OC[C@H]1O[C@@H](O[C@H]2[C@@H](O)[C@@H](CO)OC(O)[C@@H]2O)[C@H](O)[C@@H](O)[C@H]1O` (stereo partly shown) [Galβ1–3Gal]: the Kd on galectin-3 [1] is 180 µM; at galectin-9N it was 150 µM.

For the molecule `OC1OC[C@H](O)[C@H](O)[C@H]1O` (mixture of isomers) [L-Arabinose, L-arabinose, reference compound], the dissociation constant Kd at galectin-9N was 94000 µM.

For `OC[C@H]1O[C@@H](OC[C@H]2OC(O)[C@H](O)[C@@H](O[C@@H]3O[C@H](CO)[C@H](O)[C@H](O)[C@H]3O)[C@H]2O)[C@H](O)[C@@H](O)[C@H]1O` (stereo partly shown) [Branched Galβ1–6(Galβ1–3)Gal, Galβ1–6(Galβ1–3)Gal], the Kd at galectin-1 is 1300 µM; at galectin-3 [1], 130 µM; on galectin-9N, 100 µM.

With `CO[C@@H]1O[C@H](CO)[C@@H](O[C@@H]2O[C@H](CO)[C@H](O)[C@H](O)[C@H]2O)[C@H](O)[C@H]1NC(C)=O` [Methyl β-LacNAc, reference compound], the Kd on galectin-1 was 84 µM; on galectin-3 [1] it was 52 µM; on Gal-3 R186S, 1200 µM.

Consider `CO[C@@H]1O[C@H](CO)[C@@H](O[C@@H]2O[C@H](CO)[C@H](O)[C@H](O)[C@H]2O)[C@H](O)[C@H]1O` [Methyl β-Lac, reference compound], for which the Kd at galectin-1 is 170 µM; at galectin-3 [1], 110 µM; on Gal-3 R186S, 290 µM; on Gal-4C it was 2900 µM; at Gal-4N it was 2600 µM; on Gal-9C it was 190 µM.

As for Anginex [reference compound], the “influence on galectin-1 interaction with Davanat®” value on galectin-1 (galectin-1 0.5 μM, tdga probe 0.1 μM, Fig. 7E) is on record as “no influence”. Besides, the “potentiation of the inhibition of galectin-1 by ASF (factor)” value on galectin-1 (with or without β-mercaptoethanol, Fig. 7F) is given as “about 500”.

Regarding `OC[C@H]1O[C@@H](O[C@H]2[C@@H](O)[C@@H](CO)O[C@@H](OC[C@H]3OC(O)[C@H](O)[C@@H](O)[C@H]3O)[C@@H]2O)[C@H](O)[C@@H](O)[C@H]1O` (stereo partly shown) [Galβ1–3Galβ1–6Gal], the results for the Kd on galectin-1, on galectin-3 [1] and at galectin-9N were 1200 µM, 110 µM and 68 µM, respectively.

Take `OC[C@H]1O[C@@H](OC[C@H]2OC(O)[C@H](O)[C@@H](O)[C@H]2O)[C@H](O)[C@@H](O)[C@H]1O` (stereo partly shown) [Galβ1–6Gal]: the Kd on galectin-1 and on galectin-9N was > 2000 µM in each case.

For the molecule `O=C[C@H](O)[C@@H](O)[C@@H](O)[C@H](O)CO` [Gal, galactose], the Kd at galectin-3 [2] was ~5000 µM.

Take `OC[C@H]1O[C@@H](OC[C@H]2O[C@@H](OC[C@H]3OC(O)[C@H](O)[C@@H](O)[C@H]3O)[C@H](O)[C@@H](O)[C@H]2O)[C@H](O)[C@@H](O)[C@H]1O` (stereo partly shown) [Galβ1–6Galβ1–6Gal]: the dissociation constant Kd on galectin-1, on galectin-3 [1] and at galectin-9N was > 2000 µM each time.

B1: asialofetuin (natural protein, UniProt P12763 19-359, looked up)
chain: IPLDPVAGYKEPACDDPDTEQAALAAVDYINKHLPRGYKHTLNQIDSVKVWPRRPTGEVYDIEIDTLETTCHVLDPTPLANCSVRQQTQHAVEGDCDIHVLKQDGQFSVLFTKCDSSPDSAEDVRKLCPDCPLLAPLNDSRVVHAVEVALATFNAESNGSYLQLVEISRAQFVPLPVSVSVEFAVAATDCIAKEVVDPTKCNLLAEKQYGFCKGSVIQKALGGEDVRVTCTLFQTQPVIPQPQPDGAEAEAPSAVPDAAGPTPSAAGPPVASVVVGPSVVAVPLPLHRAHYDLRHTFSGVASVESSSGEAFHVGKTPIVGQPSIPGGPVRLCPGRIRYFKI
notes: asialofetuin (ASF), a glycoprotein; Desialylated fetuin; also called ASF
In the case of B1, the “fold potentiation by Anginex of the inhibition of galectin-1/probe binding by ASF” value with galectin-1 wild type was ~500 fold.
